± gives the standard deviation of the averaged measurements.
Columns and labels:
Assay in all cases: activity (1 - area under the dose-response curve within the screened range) (fraction); higher = more sensitive
Conditions in all cases: treatment time: 72 h
[1] = test system: HCM-SANG-0270-C20 (colorectal cancer organoid)
Description: (§1)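 Patient-derived cancer organoids (colorectal and oesophageal, HCM-SANG models) were grown for up to 6 months in 5% or 80% ECM (BME-2), then seeded in 384-well plates on an ECM layer and treated with 72 compounds for 3 days. Each compound used a 7-point half-log dilution series spanning a 1000-fold range, in technical triplicate and biological duplicate. Dose-response curves were fitted with a non-linear mixed effects model; fits with RMSE > 0.3 were removed, and activity = 1 - AUC within the screened dose range (0 = no activity, 1 = maximum).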

[2] = test system: HCM-SANG-0291-C15 (oesophageal cancer organoid)
Description: as §1

[3] = test system: HCM-SANG-0532-C20 (colorectal cancer organoid)
Description: as §1

[4] = test system: HCM-SANG-0266-C20 (colorectal cancer organoid)
Description: as §1

[5] = ECM percentage in culture prior to screening 5 %
[6] = ECM percentage in culture prior to screening 80 %

SMILES | activity [1, 5] | activity [1, 6] | activity [2, 5] | activity [2, 6] | activity [3, 5] | activity [3, 6] | activity [4, 5] | activity [4, 6]
c1cn2cc(-c3ccc4cn[nH]c4c3)nc(Nc3ccc(N4CCOCC4)cc3)c2n1 [Entospletinib] | 0.0261 ± 0.0085 | 0.0204 ± 0.0032 | 0.0238 ± 0.0074 | 0.0204 ± 0.0022 | 0.0354 ± 0.019 | 0.0256 ± 0.0054 | 0.0298 ± 0.01 | 0.0227 ± 0.0068
CC[C@@H]1C(=O)N(C)c2cnc(Nc3ccc(C(=O)NC4CCN(C)CC4)cc3OC)nc2N1C1CCCC1 [BI-2536] | 0.305 ± 0.17 | 0.311 ± 0.11 | 0.429 ± 0.043 | 0.464 ± 0.06 | 0.292 ± 0.087 | 0.335 ± 0.046 | 0.439 ± 0.041 | 0.436 ± 0.036
CCNC(=O)C[C@@H]1N=C(c2ccc(Cl)cc2)c2cc(OC)ccc2-n2c(C)nnc21 [I-BET-762] | 0.0441 ± 0.019 | 0.0339 ± 0.019 | 0.0724 ± 0.037 | 0.068 ± 0.015 | 0.0448 ± 0.021 | 0.0841 ± 0.035 | 0.121 ± 0.041 | 0.0782 ± 0.04
CC(C)C[C@H](NC(=O)[C@H](Cc1ccccc1)NC(=O)c1cnccn1)B(O)O [Bortezomib] | 0.16 ± 0.023 | 0.167 ± 0.03 | 0.208 ± 0.027 | 0.234 ± 0.034 | 0.201 ± 0.028 | 0.212 ± 0.031 | 0.201 ± 0.023 | 0.228 ± 0.015
C[C@]12CC[C@@H]3c4ccc(O)cc4C[C@@H](CCCCCCCCC[S+]([O-])CCCC(F)(F)C(F)(F)F)[C@H]3[C@@H]1CC[C@@H]2O (some centres not stated) [Fulvestrant] | 0.0292 ± 0.0081 | 0.0268 ± 0.015 | 0.0285 ± 0.013 | 0.0212 ± 0.0031 | 0.022 ± 0.0021 | 0.0273 ± 0.0072 | 0.0414 ± 0.019 | 0.0246 ± 0.0074
CS(=O)(=O)N1CCN(Cc2cc3nc(-c4cccc5[nH]ncc45)nc(N4CCOCC4)c3s2)CC1 [Pictilisib] | 0.0973 ± 0.037 | 0.0554 ± 0.033 | 0.0595 ± 0.032 | 0.0514 ± 0.019 | 0.12 ± 0.07 | 0.155 ± 0.039 | 0.198 ± 0.059 | 0.152 ± 0.068
Cc1nc(NC(=O)N2CCC[C@H]2C(N)=O)sc1-c1ccnc(C(C)(C)C(F)(F)F)c1 [Alpelisib] | 0.036 ± 0.027 | 0.0216 ± 0.0057 | 0.0264 ± 0.0063 | 0.0261 ± 0.011 | 0.0918 ± 0.087 | 0.0904 ± 0.033 | 0.13 ± 0.052 | 0.0656 ± 0.019
NC1(c2ccc(-c3nc4ccn5c(=O)[nH]nc5c4cc3-c3ccccc3)cc2)CCC1 [MK-2206] | 0.076 ± 0.014 | 0.0487 ± 0.04 | 0.086 ± 0.048 | 0.0594 ± 0.025 | 0.158 ± 0.11 | 0.168 ± 0.034 | 0.223 ± 0.074 | 0.152 ± 0.095
CC(=O)Nc1cccc(-n2c(=O)n(C3CC3)c(=O)c3c(Nc4ccc(I)cc4F)n(C)c(=O)c(C)c32)c1 [Trametinib] | 0.0906 ± 0.051 | 0.0586 ± 0.043 | 0.1 ± 0.019 | 0.0654 ± 0.02 | 0.114 ± 0.065 | 0.146 ± 0.024 | 0.207 ± 0.078 | 0.0946 ± 0.067
CNC(=O)CN1CCC(Oc2cc3c(Nc4cccc(Cl)c4F)ncnc3cc2OC)CC1 [Sapitinib] | 0.236 ± 0.12 | 0.139 ± 0.12 | 0.207 ± 0.076 | 0.159 ± 0.025 | 0.119 ± 0.038 | 0.179 ± 0.043 | 0.255 ± 0.081 | 0.121 ± 0.1
C[C@@H](Oc1cc(-c2cnn(C3CCNCC3)c2)cnc1N)c1c(Cl)ccc(F)c1Cl [Crizotinib] | 0.0695 ± 0.034 | 0.0648 ± 0.056 | 0.0562 ± 0.022 | 0.065 ± 0.022 | 0.101 ± 0.068 | 0.154 ± 0.04 | 0.144 ± 0.035 | 0.0852 ± 0.034
CS(=O)(=O)CCNCc1ccc(-c2ccc3ncnc(Nc4ccc(OCc5cccc(F)c5)c(Cl)c4)c3c2)o1 [Lapatinib] | 0.157 ± 0.057 | 0.106 ± 0.073 | 0.207 ± 0.045 | 0.189 ± 0.022 | 0.143 ± 0.069 | 0.205 ± 0.052 | 0.21 ± 0.071 | 0.132 ± 0.082
O=C(c1cc(Cc2n[nH]c(=O)c3ccccc23)ccc1F)N1CCN(C(=O)C2CC2)CC1 [Olaparib] | 0.0818 ± 0.017 | 0.0664 ± 0.027 | 0.0587 ± 0.015 | 0.0412 ± 0.017 | 0.0528 ± 0.018 | 0.0726 ± 0.027 | 0.0602 ± 0.028 | 0.0424 ± 0.017
C=CCn1c(=O)c2cnc(Nc3ccc(N4CCN(C)CC4)cc3)nc2n1-c1cccc(C(C)(C)O)n1 [MK-1775] | 0.255 ± 0.042 | 0.205 ± 0.11 | 0.257 ± 0.036 | 0.24 ± 0.051 | 0.156 ± 0.019 | 0.19 ± 0.027 | 0.407 ± 0.048 | 0.348 ± 0.044
Cc1cc(Nc2cc(N3CCN(C)CC3)nc(Sc3ccc(NC(=O)C4CC4)cc3)n2)n[nH]1 [Tozasertib] | 0.0983 ± 0.062 | 0.0668 ± 0.034 | 0.0578 ± 0.037 | 0.0466 ± 0.014 | 0.16 ± 0.076 | 0.123 ± 0.046 | 0.222 ± 0.09 | 0.228 ± 0.033
O=c1cc(-c2cccc3c2Sc2ccccc2S3)oc(N2CCOCC2)c1 | 0.0345 ± 0.015 | 0.0384 ± 0.0084 | 0.068 ± 0.034 | 0.0493 ± 0.031 | 0.0709 ± 0.021 | 0.037 ± 0.01 | 0.0362 ± 0.021 | 0.0433 ± 0.027
Cc1cc(-c2ncc(CC(=O)Nc3ccc(-c4cnccn4)cn3)cc2C)ccn1 [LGK974] | 0.0409 ± 0.013 | 0.0485 ± 0.035 | 0.0263 ± 0.0099 | 0.0251 ± 0.0087 | 0.0269 ± 0.005 | 0.0397 ± 0.009 | 0.0334 ± 0.014 | 0.0329 ± 0.017
Cc1cc([C@@H](C)Nc2ccccc2C(=O)O)c2nc(N3CCOCC3)cc(=O)n2c1 [AZD6482] | 0.0274 ± 0.021 | 0.0245 ± 0.008 | 0.0199 ± 0.0028 | 0.0269 ± 0.0093 | 0.0367 ± 0.021 | 0.0291 ± 0.011 | 0.042 ± 0.03 | 0.0421 ± 0.017
Nc1nc2[nH]cc(CCc3ccc(C(=O)N[C@@H](CCC(=O)O)C(=O)O)cc3)c2c(=O)[nH]1 [Pemetrexed] | 0.117 ± 0.049 | 0.164 ± 0.1 | 0.0737 ± 0.036 | 0.0434 ± 0.025 | 0.0604 ± 0.023 | 0.0425 ± 0.012 | 0.0697 ± 0.056 | 0.0926 ± 0.047
Cn1ncc(Cl)c1-c1cc(C(=O)N[C@H](CN)Cc2ccc(F)c(F)c2)oc1Cl [Uprosertib] | 0.0769 ± 0.057 | 0.0584 ± 0.038 | 0.0195 ± 0.0032 | 0.0257 ± 0.018 | 0.177 ± 0.14 | 0.159 ± 0.027 | 0.218 ± 0.089 | 0.183 ± 0.08
COCC1(CO)C(=O)C2CCN1CC2 (configuration not stated) [PRIMA-1MET] | 0.0251 ± 0.01 | 0.0283 ± 0.0083 | 0.0344 ± 0.019 | 0.0328 ± 0.011 | 0.074 ± 0.023 | 0.0388 ± 0.016 | 0.0344 ± 0.016 | 0.0318 ± 0.016
COc1cc2nccc(Oc3ccc(NC(=O)Nc4cc(C)on4)c(Cl)c3)c2cc1OC [Tivozanib] | 0.0217 ± 0.0076 | 0.0262 ± 0.01 | 0.0202 ± 0.0045 | 0.0228 ± 0.0062 | 0.0321 ± 0.016 | 0.0237 ± 0.0055 | 0.0203 ± 0.0013 | 0.0214 ± 0.0013
CCN(CC)CCCCNc1ncc2cc(-c3cc(OC)cc(OC)c3)c(NC(=O)NC(C)(C)C)nc2n1 | 0.0417 ± 0.029 | 0.0362 ± 0.015 | 0.0598 ± 0.031 | 0.0496 ± 0.0089 | 0.0936 ± 0.015 | 0.0708 ± 0.015 | 0.0628 ± 0.031 | 0.0486 ± 0.023
Cc1cn(-c2cc(NC(=O)c3ccc(C)c(Nc4nccc(-c5cccnc5)n4)c3)cc(C(F)(F)F)c2)cn1 [Nilotinib] | 0.0302 ± 0.0098 | 0.0451 ± 0.018 | 0.0659 ± 0.035 | 0.0726 ± 0.03 | 0.111 ± 0.036 | 0.104 ± 0.021 | 0.0558 ± 0.029 | 0.0445 ± 0.025
O=C1NC(=NCc2cccs2)S/C1=C\c1ccc2ncccc2c1 [RO-3306] | 0.0909 ± 0.041 | 0.0974 ± 0.033 | 0.0636 ± 0.017 | 0.0709 ± 0.026 | 0.117 ± 0.033 | 0.108 ± 0.016 | 0.123 ± 0.017 | 0.152 ± 0.035
CC(=O)c1c(C)c2cnc(Nc3ccc(N4CCNCC4)cn3)nc2n(C2CCCC2)c1=O [Palbociclib] | 0.0934 ± 0.03 | 0.0559 ± 0.031 | 0.0779 ± 0.033 | 0.0409 ± 0.013 | 0.0593 ± 0.019 | 0.102 ± 0.034 | 0.0791 ± 0.052 | 0.0779 ± 0.05
NC(=O)Nc1cc(-c2cccc(F)c2)sc1C(=O)N[C@H]1CCCNC1 [AZD7762] | 0.23 ± 0.049 | 0.199 ± 0.05 | 0.269 ± 0.016 | 0.248 ± 0.043 | 0.14 ± 0.056 | 0.177 ± 0.035 | 0.287 ± 0.041 | 0.232 ± 0.029
Cc1nc(Nc2ncc(C(=O)Nc3c(C)cccc3Cl)s2)cc(N2CCN(CCO)CC2)n1 [Dasatinib] | 0.0518 ± 0.018 | 0.045 ± 0.018 | 0.0426 ± 0.021 | 0.0463 ± 0.017 | 0.0937 ± 0.048 | 0.0525 ± 0.021 | 0.129 ± 0.069 | 0.0743 ± 0.054
CC[C@@]1(O)C(=O)OCc2c1cc1n(c2=O)Cc2cc3ccccc3nc2-1 [Camptothecin] | 0.133 ± 0.028 | 0.0946 ± 0.022 | 0.262 ± 0.021 | 0.258 ± 0.022 | 0.106 ± 0.034 | 0.156 ± 0.023 | 0.169 ± 0.031 | 0.147 ± 0.071

Reference: the supplement of paper PMC8976852
